Reference: patent publication US7803377B2, “Anti-DLL4 antibodies and methods using same” (Genentech, Inc., priority 2006, dated 2010)

Tests used:
[1] = test system: human colon carcinoma Colo205 cells; assay: Tumor model Colo205; type: in vivo, mouse
Experimental: (§1) Tumor models. Beige nude female mice of 8- to 10-week-old were used. To obtain subcutaneous tumors, mice were injected with 0.1 ml cell suspension containing 50% matrigel (BD Bioscience) into the right posterior flank. 5×10^6 human colon cancer HM7 cells, 10×10^6 human colon carcinoma Colo205 cells, 10×10^6 human lung carcinoma Calu6 cells, 10×10^6 human lung carcinoma MV-522 cells, 10×10^6 mouse leukemia WEHI-3 cells, 10×10^6 mouse lymphoma EL4 cells, 10×10^6 human ovarian cancer SK-OV-3 X1 cells, 10×06 mouse lung cancer LL2 cells, 10×10^6 leukemia/lymphoma EL4 cells, or 10×10^6 non-small lung cancer H1299 cells were injected into each mouse. For human melanoma MDA-MB-435 model, mice were injected into the mammary fat pad with 0.1 ml cell (5×10^6) suspension containing 50% matrigel. […] For the following tumor models, each test mouse received a subcutaneous tumor fragment (1 mm^3) implanted in the right flank: non-small lung cancer SKMES-1, human breast cancer MX-1, human colorectal cancer SW620 and human adenocarcinoma LS174T. The tumor growth was quantitated by caliper measurements. Tumor volume (mm^3) was determined by measuring the length (l) and width (w) and calculating the volume (V=lw2/2). 10 to 15 animals were included in each group. Statistical comparison of treatment groups was performed using two-tailed Student's t-test. […]

[2] = test system: mouse lung cancer LL2 cells; assay: Tumor model LL2; type: in vivo; conditions: 5 mg/kg, IP, twice weekly after establishment of the tumors
Experimental: as §1

[3] = test system: human lung carcinoma MV-522 cells; assay: Tumor model MV-522; type: in vivo, mouse; conditions: treatment initiated at ≧250 mm^3
Experimental: as §1

[4] = test system: small intestines; assay: Histology and immunohistochemistry of mouse intestines; type: in vivo; conditions: anti-DLL4 antibody 10 mg/kg, twice weekly for 6 weeks
Experimental: FIG. 10: DLL4/Notch was dispensable in the homeostasis of mouse intestine. Immunohistochemical studies of small intestines from control (a, d, g, j), anti-DLL4 antibody (10 mg/kg, twice weekly for 6 weeks) (b, e, h, k), and DBZ treated (30 μmol/kg daily for 5 days) (c, f, i, l) mice.
Histology and immunohistochemistry of mouse intestines. Formalin-fixed and paraffin-embedded mouse small intestine tissues were sectioned at 3 μm thickness. Histochemical identification of intestinal cell types was performed with Alcian blue as recommended by the manufacturer (PolyScientific). For anti-Ki67 staining, sections were pretreated with Target Retrieval Solution (S1700, DAKO), and incubated with rabbit anti-Ki67 (1:200, clone SP6, Neomarkers). Secondary goat anti-rabbit at 7.5 µg/ml (Vector labs) was detected with the Vectastain ABC Elite Kit (Vector labs). All Ki67 stained sections were counterstained with Mayer's hematoxylin. For HES-1 staining, anti-rat HES-1 (clone NM1, MBL, International), followed by TSA-HRP, was used.
A major concern about global inhibition of Notch is that it may be deleterious, given the pleiotropic roles of Notch signaling in regulating the homeostasis of postnatal self-renewal systems. For instance, Notch signaling is required to maintain undifferentiated crypt progenitor cells in intestines (van Es, J. H. et al. Nature 435, 959-63 (2005); Fre, S. et al. Nature 435, 964-8 (2005)). Indeed, γ-secretase inhibitors, which would indiscriminately block all Notch activities, cause unwanted side effects in rodents duo to a massive increase in goblet cells within the crypt compartment (Milano, J. et al. Toxicol Sci 82, 341-58 (2004); Wong, G. T. et al. J Biol Chem 279, 12876-82 (2004)). We examined the small intestines of mice treated with anti-DLL4 Mab by immunohistochemistry analyses.

[5] = test system: mouse lymphoma EL4 cells; assay: Tumor model EL4; type: in vivo; conditions: 5 mg/kg, IP, twice weekly after establishment of the tumors
Experimental: as §1

[6] = target: DLL4 (Homo sapiens, UniProt Q9NR61); assay: Notch ligand: Notch blocking ELISA (DLL4-AP / DLL4-His binding to coated rNotch1); parameters: amino acid 1-404 of DLL4 fused to human placenta alkaline phosphatase; made in house; host or cells: 293 cells, conditioned medium (DLL4-AP); conditions: purified DLL4-His, read-out: calculated IC50, blocking the binding of DLL4-His to coated rNotch1
DLL4, sequence (Q9NR61 27-404): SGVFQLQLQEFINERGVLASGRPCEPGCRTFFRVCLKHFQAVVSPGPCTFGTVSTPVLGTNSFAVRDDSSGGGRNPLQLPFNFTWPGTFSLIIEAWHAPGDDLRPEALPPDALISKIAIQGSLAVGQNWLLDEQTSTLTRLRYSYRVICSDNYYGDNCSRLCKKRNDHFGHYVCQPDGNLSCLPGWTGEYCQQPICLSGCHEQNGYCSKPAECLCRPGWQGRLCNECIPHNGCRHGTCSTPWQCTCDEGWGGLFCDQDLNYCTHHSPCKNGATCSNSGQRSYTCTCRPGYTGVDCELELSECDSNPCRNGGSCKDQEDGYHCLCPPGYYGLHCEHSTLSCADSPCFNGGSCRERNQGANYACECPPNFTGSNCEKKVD
Experimental: Conditioned medium containing DLL4-AP (amino acid 1-404 of DLL4 fused to human placenta alkaline phosphatase) was used in the assay. To prepare conditioned medium, 293 cells were transiently transfected with plasmid expressing DLL4-AP with Fugen6 reagent (Roche Molecular Biochemicals). Five days posttransfection, the conditioned medium was harvested, filtered and stored at 4° C. Purified antibodies titrated from 0.15 to 25 μg/ml were preincubated for 1 hr at room temperature with DLL4-AP conditioned medium at a dilution that conferred 50% maximally achievable binding to coated rrNotch1-Fc. The antibody/DLL4-AP mixture was then added to rrNotch1-Fc coated plate for 1 hr at room temperature, after which plates were washed several times in PBS. The bound DLL4-AP was detected using 1-Step PNPP (Pierce) as substrate and OD 405 nm absorbance measurement. […] The bound His-tagged ligands was detected with mouse anti-His mAb (1 μg/ml, Roche Molecular Biochemicals), biotinylated goat-anti-mouse (Jackson ImmunoResearch) and Streptavidin-AP (Jackson ImmunoResearch).

[7] = test system: non-small lung cancer SKMES-1; assay: Tumor model SKMES-1; type: in vivo, mouse; conditions: 5 mg/kg, IP, twice weekly after establishment of the tumors
Experimental: as §1

[8] = test system: human colorectal cancer SW620; assay: Tumor model SW620; type: in vivo, mouse; conditions: 5 mg/kg, IP, twice weekly after establishment of the tumors
Experimental: as §1

[9] = test system: human lung carcinoma Calu6 cells; assay: Tumor model Calu6; type: in vivo, mouse; conditions: treatment initiated at ≧250 mm^3; 10 mg/kg i.p. twice weekly; two weeks of treatment
Experimental: as §1

Substance: YW26.82: affinity matured anti-DLL4 monoclonal antibody; HVR-H1/H2/H3 SEQ ID NO:1, 8, 9; HVR-L1/L2/L3 SEQ ID NO:10, 11, 18
- tumor histology: EC density and viable tumor cell content ([1]; anti-DLL4 Mab treated Colo205 tumors): high EC density was associated with low viable tumor cell content
- tumor volume ([1]; treatment initiated at ≧250 mm^3, 10 mg/kg i.p. twice weekly, two weeks of treatment): remained static
- tumor growth, single agent [2]: inhibited tumor growth alone
- tumor growth, single agent [3]: inhibited tumor growth
- tumor growth, combination of YW26.82 and anti-VEGF ([3]; combination with anti-VEGF): most effective
- epithelial crypt cell differentiation or proliferation in small intestine [4]: entirely absent
- expression of Notch target gene HES-1 in transit amplifying (TA) population [4]: did not alter the expression of the Notch target gene HES-1
- epithelial crypt cell differentiation or proliferation in small intestine ([4]; listed as anti-DLL4 Mab): no differences in epithelial crypt cell differentiation or proliferation profiles
- tumor growth, single agent [5]: inhibited tumor growth alone
- IC50 [6]: ~8 nM
- tumor growth, single agent [7]: inhibited tumor growth alone
- tumor growth, single agent [8]: inhibited tumor growth alone
- tumor volume [9]: remained static
